What was measured:
Type in all cases: in vivo
Design in all cases: key: compounds were considered to be active when, at a concentration of 500 ppm or less, they had an activity on the harmful organisms of 50% or more
Plutella maculipennis [1] = assay: Example K: sprayed white cabbage leaf, diamondback moth larvae mortality; conditions: 500 ppm or less, after 3 days
Procedure: A white cabbage leaf was sprayed with an aqueous solution of the formulated compound to be examined. After the spray coating had dried, the treated leaf was populated with larvae of the diamondback moth (Plutella maculipennis). After 3 days of storage at about 23° C., the effect of the compound on the larvae was determined (mortality). The compounds of the following examples were active: 60, 70, 1002, 1004, 1005, 1036, 197.

[2] = system: Trialeurodes vaporariorum; assay: Example AD: bush beans sprayed, white fly larvicidal action; conditions: 500 ppm or less; bush beans sprayed after hatching; after 11 days
Procedure: For oviposition, bush beans (Phaseolus vulgaris) were populated for 48 hours with adults of the white fly (Trialeurodes vaporariorum). After the larvae had hatched, the plants were sprayed to run-off point with an aqueous solution of the formulated compound to be examined. After 11 days, the larvicidal action was determined. The following examples were active: 1036, 70, 60, 1040, 197.

Plutella maculipennis [3] = assay: Example P: dipped cabbage leaf, diamondback moth larvae; conditions: 500 ppm or less, after 3 days
Procedure: A cabbage leaf was dipped for about 5 seconds into an aqueous solution of the formulated compound to be examined. After drying, the cabbage leaf treated in this manner was transferred into a container and populated with 10 larvae of the diamondback moth (Plutella maculipennis). The container was then closed with a lid. After 3 days of storage at about 23° C., the effect of the compound on the larvae was determined. The following examples were active: 1036, 70, 60, 209.

Carpocapsa pomonella = assay: Example I: insect diet and L1 larvae sprayed, codling moth mortality; conditions: 500 ppm or less, after 8 days
Procedure: Ten L1 larvae of the codling moth (Carpocapsa pomonella) were placed into a Petri dish filled with insect diet. Insect diet and the larvae used were then sprayed with an aqueous solution of the formulated compound to be examined. The Petri dish was then closed with a lid. After 8 days of storage at about 23° C., the effect of the compound on the larvae was determined (mortality). The compounds of the following examples were active: 60, 70, 1002, 1005.

[4] = system: Diabrotica undecimpunctata; assay: Example AC: treated soil, southern corn rootworm eggs mortality; conditions: 500 ppm or less, eggs added after 0d, 21d and 42d, after 2 weeks
Procedure: An aqueous solution of the formulated compound to be examined was mixed with soil. After 0d, 21d and 42d, eggs of the southern corn rootworm (Diabrotica undecimpunctata) were placed together with 2 pre-swollen maize corns into a dish, covered with the treated soil and moisted with 10 ml of water. Soil and eggs were placed in a greenhouse (23° C., 60% relative atmosphere humidity). After 2 weeks of storage, the effect of the compound on the eggs and any larvae hatched therefrom was determined (mortality). The following examples were active: 70, 60, 197, 204.

Spodoptera littoralis = assay: Example G: treated L2 larvae and insect diet, Egyptian cotton leafworm mortality; conditions: 500 ppm or less, after 6 days
[5] = system: Leptinotarsa decemlineata; assay: Example AI: sprayed potato plant, repellent effect on Colorado beetle larvae; conditions: 500 ppm or less; sprayed plant with untreated plant in a cage; after 1 and 3 days
Excerpt: A potato plant was sprayed with an aqueous solution of the formulated compound to be examined and, together with an untreated plant, placed in a cage. The cage was populated with 100 larvae of the Colorado beetle (Leptinotarsa decemlineata). […] The following examples were active: 1036, 70, 60.

Heliothis virescens [6] = assay: Example B: tobacco budworm eggs on filter paper/insect diet, mortality; conditions: 500 ppm or less; 24-hour-old eggs dipped, diet treated; after 6 days
Heliothis virescens [7] = assay: Example V: dipped freeze-dried diet cube, tobacco budworm L2 larvae mortality; conditions: 500 ppm or less, after 4 days
Procedure: Insect diet (as freeze-dried cube) was dipped into an aqueous solution of the formulated compound to be examined and then placed into a Petri dish. 10 L2 larvae of the American tobacco budworm (Heliothis virescens) were then added. The Petri dish was then closed with a lid. After 4 days of storage at about 23° C., the mortality among the larvae was determined. The following examples were active: 1036, 60.

Ctenocephalides felis = assay: Example M: cat fleas fed with treated cattle blood, mortality; conditions: 500 ppm or less; adult fleas fed blood-preparation mixture; after 48 hours
Procedure: The formulated compound was mixed with defibrinated cattle blood. 10 adult cat fleas (Ctenocephalides felis) were fed with this blood-preparation mixture. After 48 hours at about 38° C., the effect of the compound on the fleas was determined (mortality). The compounds of the following examples were active: 70, 1002, 1004, 1005, 1036, 60, 197, 1057.

CC1CCN(CC#Cc2cc(C(F)(F)F)cc(C(F)(F)F)n2)CC1 [Example 60]
active: effect on the larvae (mortality) (Plutella maculipennis [1]) | larvicidal action [2] | effect on the larvae (Plutella maculipennis [3]) | effect on the larvae (mortality) (Carpocapsa pomonella) | effect on the eggs and hatched larvae (mortality) [4] | effect on the larvae (mortality) (Spodoptera littoralis) | repellent effect on the larvae [5] | effect on the eggs and hatched larvae (mortality) (Heliothis virescens [6]) | mortality among the larvae (Heliothis virescens [7]) | effect on the fleas (mortality) (Ctenocephalides felis)

Reference: patent US7084158B2, “Substituted propargylamines” (Bayer Cropscience S.A., priority 2001, dated 2006)
